Among the data in PubChem BioAssay (NCI) are GI50 and TGI values, retold here.

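48-hour exposure; five concentrations; linearly interpolated endpoints. The concentration for 50% growth inhibition is given as GI50. TGI: total growth inhibition.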

Among the test systems are HCT-15 colon; NCI-H226 lung; HOP-92 NSCLC; U251 CNS; SN12C renal; HL-60(TB) leukemia; OVCAR-4 ovarian; EKVX NSCLC; SR leukemia; NCI/ADR-RES ovarian.
Common to all, as to test: DTP human tumour cell line panel, 48 h

For orientation: GI50 means the concentration giving 50% growth inhibition. One may read the TGI as the concentration giving total growth inhibition. Read a high TGI as less potent growth arrest. In the case of `Cn1ncc(-c2ccc3c(=O)[nH]nc(CN)c3c2)c1-c1c(F)cc2ccccc2c1C#N`, the GI50 in the test on HCT-15 colon was 4.92 µM; with NCI-H226 lung, 7.69 µM; with HOP-92 NSCLC, 4.06 µM; in the test on U251 CNS it was 5.36 µM; in the test with SN12C renal, 7.53 µM; with HL-60(TB) leukemia it was 3.42 µM. The GI50 in the test on OVCAR-4 ovarian was 7.67 µM; in the test with EKVX NSCLC, 11.9 µM; in the test with SR leukemia, 1.1 µM; in the test on NCI/ADR-RES ovarian, 12.7 µM. Moreover, the TGI with HCT-15 colon is 19.1 µM; in the test with NCI-H226 lung, 24.3 µM; with HOP-92 NSCLC, 18.1 µM; in the test on U251 CNS it was 17.9 µM; in the test with SN12C renal it was 20.8 µM; with HL-60(TB) leukemia it was 18.2 µM. Further, the TGI is 25.2 µM in the test with OVCAR-4 ovarian, 25.1 µM with EKVX NSCLC, 13.1 µM in the test on SR leukemia and 50.5 µM with NCI/ADR-RES ovarian.

For `COc1ccc2c(c1)CC[C@@H]1[C@@H]2CC[C@]2(C)C=C(/C=C/C(=O)c3ccccc3)C[C@@H]12`, the GI50 was 17.4 µM in the test with HCT-15 colon; 17.1 µM in the test on NCI-H226 lung; 15.5 µM with HOP-92 NSCLC; 16.6 µM in the test on U251 CNS; 18.5 µM in the test with SN12C renal; 11.2 µM in the test on HL-60(TB) leukemia. In addition, the GI50 in the test with OVCAR-4 ovarian was 16.2 µM; in the test on EKVX NSCLC it was 17.7 µM; in the test on SR leukemia it was 16.6 µM; in the test with NCI/ADR-RES ovarian, 17.6 µM. The TGI in the test on HCT-15 colon was found to be 34.3 µM; in the test on NCI-H226 lung, 33.6 µM; with HOP-92 NSCLC it was 29.7 µM; in the test with U251 CNS it was 31.3 µM; in the test with SN12C renal, 33.4 µM; with HL-60(TB) leukemia, 32.4 µM. For the same compound, the TGI is 31.6 µM in the test on OVCAR-4 ovarian, 32.3 µM with EKVX NSCLC, 47.4 µM in the test on SR leukemia and 35.1 µM in the test with NCI/ADR-RES ovarian.

Take `COc1cc([C@@H]2c3cc4c(cc3C(OC3O[C@@H]5COC(C)O[C@H]5[C@H](O)[C@H]3O)C3COC(=O)[C@@H]32)OCO4)cc(OC)c1O` (some centres undefined): the GI50 in the test on HCT-15 colon is 8.4 µM; with NCI-H226 lung, 0.792 µM; with HOP-92 NSCLC it was 0.397 µM; in the test on U251 CNS, 0.667 µM; with SN12C renal it was 0.917 µM; in the test on HL-60(TB) leukemia, 0.182 µM. Further, the GI50 was 14.4 µM in the test with OVCAR-4 ovarian, 11.4 µM with EKVX NSCLC, 0.0276 µM with SR leukemia and 15.4 µM in the test on NCI/ADR-RES ovarian. The TGI with HCT-15 colon is over 50 µM; with NCI-H226 lung, 7.25 µM; with HOP-92 NSCLC, 9.97 µM; in the test on U251 CNS it was 14.9 µM; in the test on SN12C renal, 12.4 µM; in the test with HL-60(TB) leukemia it was 1.53 µM. Also, the TGI in the test on OVCAR-4 ovarian, with EKVX NSCLC and with NCI/ADR-RES ovarian was over 50 µM throughout.

Take `Cc1sc2ncn(Cc3ccc(Cl)c(Cl)c3)c(=O)c2c1C`: the GI50 was 19.4 µM with HCT-15 colon; over 100 µM in the test with NCI-H226 lung; 18.4 µM in the test with HOP-92 NSCLC; 27.6 µM in the test with U251 CNS; 20.5 µM in the test with SN12C renal; over 100 µM in the test with HL-60(TB) leukemia. Moreover, the GI50 is 28.2 µM in the test on OVCAR-4 ovarian, 22.2 µM in the test with EKVX NSCLC, 29.8 µM in the test on SR leukemia and 27.5 µM with NCI/ADR-RES ovarian. Besides, the TGI in the test on HCT-15 colon is over 100 µM; in the test on NCI-H226 lung, over 100 µM; in the test with HOP-92 NSCLC it was 73.7 µM; with U251 CNS, over 100 µM; in the test with SN12C renal, over 100 µM; in the test with HL-60(TB) leukemia it was over 100 µM. For the same compound, the concentration for total growth inhibition (TGI) was 68.9 µM with OVCAR-4 ovarian, over 100 µM in the test with EKVX NSCLC, over 100 µM in the test with SR leukemia and over 100 µM with NCI/ADR-RES ovarian.

Consider `O=c1c2c3c(sc2n2c(-c4ccc(Br)cc4)nnc2n1Cc1ccccc1)CCCC3`, for which the GI50 with HCT-15 colon is 4.39 µM; in the test with NCI-H226 lung it was 7.32 µM; in the test on HOP-92 NSCLC, 3.41 µM; in the test with U251 CNS it was 6.89 µM; with SN12C renal, 8.01 µM; with HL-60(TB) leukemia, 14.1 µM. For the same compound, the GI50 in the test with OVCAR-4 ovarian was 6.03 µM; in the test on EKVX NSCLC it was 10.6 µM; in the test with SR leukemia, 4.76 µM; in the test with NCI/ADR-RES ovarian, 12.8 µM. Moreover, the TGI in the test with HCT-15 colon is 17.8 µM; in the test on NCI-H226 lung, 20.3 µM; in the test with HOP-92 NSCLC it was 16.1 µM; in the test on U251 CNS, 19.7 µM; in the test with SN12C renal, 23.4 µM; with HL-60(TB) leukemia it was 77.5 µM. Moreover, the concentration for total growth inhibition (TGI) in the test on OVCAR-4 ovarian worked out at 22.4 µM; in the test on EKVX NSCLC, 23.4 µM; in the test on SR leukemia, 23.6 µM; in the test on NCI/ADR-RES ovarian it was 36 µM.

As for `CC1(C)[C@@H](OC(N)=O)C=C[C@]2(C=O)[C@H]3CC[C@]4(C)[C@@H](c5ccc(=O)oc5)[C@@H](Cl)C[C@]4(O)C3=CC[C@@H]12`, the GI50 is 0.00555 µM in the test with HCT-15 colon; 0.00433 µM with NCI-H226 lung; 0.0057 µM in the test with HOP-92 NSCLC; 0.00451 µM with U251 CNS; 0.00293 µM in the test on SN12C renal; 0.00558 µM in the test on HL-60(TB) leukemia. Also, the GI50 is 0.004 µM with OVCAR-4 ovarian, 0.00415 µM in the test on EKVX NSCLC, 0.00566 µM with SR leukemia and 0.00609 µM with NCI/ADR-RES ovarian. For the same compound, the TGI came to 0.0129 µM in the test with HCT-15 colon; 0.00829 µM in the test with NCI-H226 lung; 0.0165 µM in the test with HOP-92 NSCLC; 0.00854 µM in the test on U251 CNS; 0.0136 µM in the test with SN12C renal; 0.0121 µM in the test on HL-60(TB) leukemia. For the same compound, the TGI in the test with OVCAR-4 ovarian turned out to be 0.0121 µM; in the test on EKVX NSCLC, 0.0102 µM; in the test with SR leukemia, 0.0154 µM; in the test with NCI/ADR-RES ovarian, 0.0167 µM.

As to `OC(COc1cccc2ccccc12)CN1CCN(c2ccccc2Cl)CC1` (centres undefined), the GI50 is 12.8 µM in the test with HCT-15 colon; 15 µM in the test on NCI-H226 lung; 2.47 µM with HOP-92 NSCLC; 17.1 µM in the test on U251 CNS; 12.5 µM in the test with SN12C renal; 12.7 µM in the test with HL-60(TB) leukemia. Further, the GI50 with OVCAR-4 ovarian is 12.6 µM; with EKVX NSCLC it was 12.9 µM; in the test on SR leukemia, 13.5 µM; in the test with NCI/ADR-RES ovarian it was 13.2 µM. Further, the TGI in the test with HCT-15 colon came out at 28.6 µM; in the test with NCI-H226 lung, 31.6 µM; in the test with HOP-92 NSCLC, 16.8 µM; with U251 CNS it was 31.6 µM; in the test with SN12C renal it was 25.4 µM; with HL-60(TB) leukemia it was 44.2 µM. For the same compound, the TGI in the test on OVCAR-4 ovarian worked out at 25.8 µM; with EKVX NSCLC, 31.7 µM; in the test on SR leukemia it was 40.4 µM; in the test on NCI/ADR-RES ovarian, 28.6 µM.

Consider `O=C(Nc1cccc(C(F)(F)F)c1)c1cc(Br)cc(Br)c1O`, for which the TGI in the test on HCT-15 colon is over 10 µM; in the test with NCI-H226 lung it was 9.42 µM; in the test with HOP-92 NSCLC it was 5.82 µM; in the test with U251 CNS it was over 10 µM; in the test on SN12C renal, over 10 µM; in the test with HL-60(TB) leukemia, 5 µM. The TGI in the test with OVCAR-4 ovarian is over 10 µM; in the test with EKVX NSCLC, 8.06 µM; in the test with SR leukemia, over 10 µM; with NCI/ADR-RES ovarian it was 6.78 µM.
